Among the test systems are NCI-H23 lung; HT29 colon; EKVX NSCLC; OVCAR-4 ovarian; SK-MEL-5 melanoma; OVCAR-3 ovarian; LOX IMVI melanoma; HCT-116 colon; NCI/ADR-RES ovarian.
Common to all, as to assay: DTP human tumour cell line panel, 48 h

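Growth conditions: 96-well plates. Treatment: test compound, 48 hours, 5 concentrations. Analysis: linear interpolation between bracketing concentrations; unreached endpoints set to highest concentration. GI50 = concentration required for 50% inhibition of growth. TGI is the concentration that stops growth completely.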

In the case of `C=CCNC(=O)N(CCCCC(NC(C)=O)C(=O)NCc1ccccc1)Cc1ccccc1` (configuration not stated), the TGI in the assay with NCI-H23 lung, with HT29 colon, with EKVX NSCLC, in the assay with OVCAR-4 ovarian, with SK-MEL-5 melanoma and with OVCAR-3 ovarian was more than 100 µM throughout. The same molecule yielded a TGI with LOX IMVI melanoma of more than 100 µM.
Consider `CCc1ccccc1NC(=O)C1=C(C)NC(C)=C(C(=O)Nc2ccccc2CC)C1c1ccccc1Cl`, for which the TGI in the assay on NCI-H23 lung, in the assay with HT29 colon, in the assay with EKVX NSCLC, in the assay with HCT-116 colon, with OVCAR-4 ovarian and in the assay with SK-MEL-5 melanoma was more than 100 µM in each case. The TGI with OVCAR-3 ovarian and with LOX IMVI melanoma was more than 100 µM each time.
As for `O/N=C1/C(=C/c2ccc3c(c2)OCO3)CCCC1C(NO)c1ccc2c(c1)OCO2` (configuration not stated), the TGI in the assay on NCI-H23 lung turned out to be 72.5 µM; in the assay on HT29 colon, 30.4 µM; in the assay with EKVX NSCLC it was 89.1 µM; in the assay with HCT-116 colon it was 31.9 µM; in the assay with OVCAR-4 ovarian it was 75.1 µM; in the assay on SK-MEL-5 melanoma, 32.3 µM. This molecule yielded a TGI in the assay on OVCAR-3 ovarian of 30.6 µM.
As for `COc1ccc(/C=N/N=C(\N)NO)cc1O`, the TGI in the assay with NCI-H23 lung, with HT29 colon, in the assay on EKVX NSCLC, with HCT-116 colon, in the assay on OVCAR-4 ovarian and in the assay with SK-MEL-5 melanoma was more than 100 µM throughout. Also, in the assay with LOX IMVI melanoma, the TGI was more than 100 µM.
Regarding `N.N.N.N.N.NC(=O)c1nn[n-]n1.[Cl-].[Co+3]`, the GI50 in the assay with NCI-H23 lung, in the assay with HT29 colon, with EKVX NSCLC, in the assay with HCT-116 colon, with OVCAR-4 ovarian and with SK-MEL-5 melanoma was more than 100 µM each time. The GI50 in the assay on OVCAR-3 ovarian and in the assay with LOX IMVI melanoma was more than 100 µM throughout. In addition, the TGI in the assay with NCI-H23 lung, in the assay with HT29 colon, in the assay with EKVX NSCLC, in the assay with HCT-116 colon, in the assay on OVCAR-4 ovarian and in the assay with SK-MEL-5 melanoma was more than 100 µM each time. The TGI in the assay on OVCAR-3 ovarian and in the assay on LOX IMVI melanoma was more than 100 µM in each case.
On to `CCOC(=O)C12CCCC1(O)N(NC(=O)OC(C)(C)C)C(C)=C2C(=O)OC` (configuration not stated), for which the TGI in the assay on NCI-H23 lung, with HT29 colon, in the assay with EKVX NSCLC, in the assay with HCT-116 colon, with OVCAR-4 ovarian and in the assay on OVCAR-3 ovarian was more than 100 µM in each case. For the same molecule, in the assay on LOX IMVI melanoma, the TGI was more than 100 µM.
For the molecule `O=C1CC(O)CC(=O)C1=C(O)CCCCCCCCCCc1ccccc1` (configuration not stated), the TGI in the assay with NCI-H23 lung, in the assay on HT29 colon, in the assay with EKVX NSCLC, in the assay on HCT-116 colon, with OVCAR-4 ovarian and with SK-MEL-5 melanoma was more than 100 µM each time. The TGI in the assay on OVCAR-3 ovarian and in the assay with LOX IMVI melanoma was more than 100 µM each time.
Consider `CCOc1cccc(/C=N/N=C2\C(=O)Nc3c(Cl)cc(Cl)cc32)c1O`, for which the TGI in the assay on NCI-H23 lung, with NCI/ADR-RES ovarian, with HT29 colon, with EKVX NSCLC, in the assay with HCT-116 colon and with OVCAR-4 ovarian was more than 100 µM throughout. Further, the TGI with SK-MEL-5 melanoma, with OVCAR-3 ovarian and in the assay on LOX IMVI melanoma was more than 100 µM throughout.
Take `COC(=O)CC1C[C@H](C#N)N(C(=O)c2ccccc2)C[C@@H]1CC[N+](=O)[O-]` (some centres not stated): the TGI with NCI-H23 lung, with HT29 colon, in the assay on EKVX NSCLC, in the assay on HCT-116 colon, in the assay with OVCAR-4 ovarian and in the assay with SK-MEL-5 melanoma was more than 100 µM each time. The TGI in the assay on OVCAR-3 ovarian and in the assay on LOX IMVI melanoma was more than 100 µM in each case.
On to `CC1=C(C(=O)Nc2cc(=O)n(C)c(=O)n2C)C(c2ccco2)C(C(=O)Nc2cc(=O)n(C)c(=O)n2C)=C(C)N1`, for which the TGI in the assay with NCI-H23 lung, in the assay on HT29 colon, in the assay with EKVX NSCLC, with OVCAR-4 ovarian, with SK-MEL-5 melanoma and with OVCAR-3 ovarian was more than 100 µM throughout. Moreover, the total growth inhibition concentration (TGI) in the assay with LOX IMVI melanoma was more than 100 µM.
Turning to `COC(=O)NC(=O)c1cn(C2OC(CO)C(O)C2O)c(=O)[nH]c1=O` (configuration not stated), the concentration for total growth inhibition (TGI) in the assay with NCI-H23 lung, with HT29 colon, with HCT-116 colon, with OVCAR-4 ovarian, in the assay on OVCAR-3 ovarian and with LOX IMVI melanoma was more than 100 µM each time.
For the molecule `Cc1cc(CC(=O)NCCO)n(CCO)c(=O)c1`, the TGI with NCI-H23 lung, with HT29 colon, with HCT-116 colon, in the assay with OVCAR-4 ovarian, with SK-MEL-5 melanoma and in the assay with OVCAR-3 ovarian was more than 100 µM throughout. In the assay on LOX IMVI melanoma, this molecule yielded a TGI of more than 100 µM.
Regarding `O=C(O)CCN(CCCCN(CCC(=O)O)CCC(=O)O)CCC(=O)O`, the TGI in the assay on NCI-H23 lung, with HT29 colon, in the assay on EKVX NSCLC, with HCT-116 colon, in the assay with OVCAR-4 ovarian and in the assay on SK-MEL-5 melanoma was more than 100 µM in each case. For the same molecule, the TGI in the assay on OVCAR-3 ovarian and in the assay on LOX IMVI melanoma was more than 100 µM in each case.
For `NC(=O)C(=O)N/N=C1\C(=O)N(c2ccc(Cl)cc2Cl)C(=O)C1C(=O)Nc1ccc(Cl)cc1Cl` (configuration not stated), the TGI with NCI-H23 lung, in the assay with HT29 colon, with EKVX NSCLC, with HCT-116 colon, in the assay with SK-MEL-5 melanoma and in the assay with OVCAR-3 ovarian was more than 100 µM in each case. The molecule also showed a TGI in the assay with LOX IMVI melanoma of more than 100 µM.
Turning to `CC1=C(c2ccccc2)C(c2ccccc2)=C(c2ccccc2)C2(c3ccccc3)C(=O)C(C)CN12` (configuration not stated), the TGI with HT29 colon was more than 100 µM; in the assay with EKVX NSCLC it was more than 100 µM; in the assay on HCT-116 colon, more than 100 µM; with OVCAR-4 ovarian, 50.5 µM; in the assay with SK-MEL-5 melanoma, more than 100 µM; with OVCAR-3 ovarian, more than 100 µM. Further, the TGI with LOX IMVI melanoma is more than 100 µM.
Turning to `COc1ccc(C23C(=O)c4ccccc4N2O[C@H]2C(=O)N(c4ccccc4)C(=O)[C@H]23)cc1` (some centres not stated), the TGI in the assay with NCI-H23 lung, in the assay with HT29 colon, in the assay with EKVX NSCLC, with HCT-116 colon, in the assay on OVCAR-4 ovarian and with SK-MEL-5 melanoma was more than 100 µM each time. Moreover, the TGI in the assay on OVCAR-3 ovarian and with LOX IMVI melanoma was more than 100 µM throughout.

(Values after PubChem BioAssay (NCI).)
